Experimental data taken from patent publication EP4603105A1, “PHARMACEUTICAL COMPOSITION CONTAINING CYCLIC COMPOUND HAVING SELECTIVE KRAS INHIBITORY EFFECT AGAINST HRAS AND NRAS” (CHUGAI SEIYAKU KABUSHIKI KAISHA, priority 2022, dated 2024).
Where a SMILES comes first, the peptide text is derived from it. Bridges are numbered along the chain shown (N, C = ends). [ ]: non-standard residue; d: D form. The star is where a group is joined. hPhe(3-Cl-4-CF3) = N[C@@H](CCc1ccc(C(F)(F)F)c(Cl)c1)C(=O)O; NPrPhe(4-CF3) = CCCN[C@@H](Cc1ccc(C(F)(F)F)cc1)C(=O)O; NMeGly(cPent) = CN[C@H](C(=O)O)C1CCCC1; Pro(4,4-F2) = O=C(O)[C@@H]1CC(F)(F)CN1; Hyp = O=C(O)[C@@H]1C[C@@H](O)CN1; NMeL = CN[C@@H](CC(C)C)C(=O)O; Morpholide = C1CN(*)CCO1; Aze = O=C(O)[C@@H]1CCN1; Ac4c = NC1(C(=O)O)CCC1; Sar = CNCC(=O)O

Experiments:
[1] = molecular target: GDP-bound NRAS wild-type protein (Homo sapiens, UniProt P01111); assay: Binding to NRAS by surface plasmon resonance (SPR), KD and KD ratio to KRAS
Summary of the method: (§1)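 Measured at 30°C: SPR with GDP-loaded, E. coli-expressed biotin-Avi RAS captured (~100–300 RU), ascending 75 s compound injections, HBS pH 7.4 with GDP, MgCl2, 4% DMSO. KD from 1:1 fit.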

HRAS wild-type protein = HRAS wild-type protein (Homo sapiens, UniProt P01112); assay: Binding to HRAS by surface plasmon resonance (SPR), KD and KD ratio to KRAS
Summary of the method: as §1

[2] = tested on: human lung cancer strain NCI-H441; assay type: cell-based
Summary of the method: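 Signal came from […] measured per well once the reagent was added. Beforehand, cells were cultured at 37°C and 5% carbon dioxide on a compound series serially diluted in dimethyl sulfoxide.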

[3] = ratio of KD for GDP-bound NRAS wild-type protein to KD for KRAS
[4] = ratio of KD for HRAS wild-type protein to KD for KRAS
[5] = ratio of the KD value with respect to GDP-bound NRAS wild-type protein to the KD value with respect to KRAS
[6] = ratio of the KD value with respect to HRAS wild-type protein to the KD value with respect to KRAS

HRAS wild-type protein, sequence (P01112 whole entry): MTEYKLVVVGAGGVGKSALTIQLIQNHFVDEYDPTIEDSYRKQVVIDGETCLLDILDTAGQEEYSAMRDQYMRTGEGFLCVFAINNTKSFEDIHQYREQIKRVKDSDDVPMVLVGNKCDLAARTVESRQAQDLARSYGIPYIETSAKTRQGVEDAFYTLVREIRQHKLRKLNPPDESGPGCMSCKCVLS
GDP-bound NRAS wild-type protein, sequence (P01111 whole entry): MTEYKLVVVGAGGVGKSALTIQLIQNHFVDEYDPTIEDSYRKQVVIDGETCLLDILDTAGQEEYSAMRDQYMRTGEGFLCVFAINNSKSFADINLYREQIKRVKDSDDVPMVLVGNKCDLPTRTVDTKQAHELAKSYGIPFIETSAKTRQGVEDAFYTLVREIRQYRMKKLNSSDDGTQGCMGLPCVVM

Row | Structure (SMILES) | IC50 [2] | NRAS /KRAS [1, 3] | HRAS /KRAS (HRAS wild-type protein; [4]) | NRAS /KRAS [1, 5] | HRAS /KRAS (HRAS wild-type protein; [6])
1 | CCO[C@@H]1C[C@H]2C(=O)NC3(CCC3)C(=O)N(C)[C@@H](C3CCCC3)C(=O)N(CCC3CCCC3)[C@H](C(=O)N3CCOCC3)CC(=O)N(C)[C@@H](CC(C)C)C(=O)N[C@@H]([C@@H](C)CC)C(=O)N(C)CC(=O)N(C)[C@H]3CCCCN(C3=O)[C@@H](Cc3ccc(C(F)(F)F)cc3)C(=O)N(C)CC(=O)N[C@@H](CCc3cc(F)c(C(F)(F)F)c(F)c3)C(=O)N2C1 [PP0651] | 136 nM | – | – | B (a compound having 3 or more and less than 10 is denoted as B) | B (a compound having 3 or more and less than 10 is denoted as B)
2 | CC[C@H](C)[C@@H]1NC(=O)[C@H](CC(C)C)N(C)C(=O)C[C@@H](C(=O)N2CCOCC2)N(C)C(=O)[C@H](C2CCCC2)N(C)C(=O)C2(CCC2)NC(=O)[C@@H]2C[C@@H](C(F)(F)F)CN2C(=O)[C@H](CCc2cc(F)c(C(F)(F)F)c(F)c2)NC(=O)CN(C)C(=O)[C@H](Cc2ccc(C(F)(F)F)cc2)N2CCCCC[C@@H](C2=O)N(C)C(=O)CN(C)C1=O [PP0818] | 43.7 nM | B (a compound having 3 or more and less than 10 is denoted as B) | B (a compound having 3 or more and less than 10 is denoted as B) | – | –
3 | CCCN1C(=O)[C@@H]2CCN2C(=O)CN(C)C(=O)[C@H]([C@@H](C)CC)NC(=O)[C@H](CC(C)C)N(C)C(=O)C[C@@H](C(=O)N2CCOCC2)NC(=O)[C@H](C2CCCC2)N(C)C(=O)C2(CCC2)NC(=O)[C@@H]2CC(F)(F)CN2C(=O)[C@H](CCc2ccc(C(F)(F)F)c(Cl)c2)NC(=O)CN(C)C(=O)[C@@H]1Cc1ccc(C(F)(F)F)cc1 [PP0352] ([NMeL]I[Sar][Aze][NPrPhe(4-CF3)][Sar][hPhe(3-Cl-4-CF3)][Pro(4,4-F2)][Ac4c][NMeGly(cPent)]D-Morpholide; lactam N-11) | 72.4 nM | C (A compound having a KD ratio of 0.1 or more and less than 3 is denoted as C) | B (a compound having 3 or more and less than 10 is denoted as B) | – | –

Molecules with a lower IC50 [2], results first:

Row | IC50 [2] | Structure (SMILES) | NRAS /KRAS [1, 3] | HRAS /KRAS (HRAS wild-type protein; [4]) | NRAS /KRAS [1, 5] | HRAS /KRAS (HRAS wild-type protein; [6])
4 | 38.5 nM | CCCN1C(=O)CN(C)C(=O)CN(C)C(=O)[C@H]([C@@H](C)CC)NC(=O)[C@H](CC(C)C)N(C)C(=O)C[C@@H](C(=O)N2CCOCC2)NC(=O)[C@H](C2CCCC2)N(C)C(=O)C2(CCC2)NC(=O)[C@@H]2C[C@@H](OCC)CN2C(=O)[C@H](CCc2ccc(C(F)(F)F)c(Cl)c2)NC(=O)CN(C)C(=O)[C@@H]1Cc1ccc(C(F)(F)F)cc1 [PP0324] ([NMeL]I[Sar][Sar][NPrPhe(4-CF3)][Sar][hPhe(3-Cl-4-CF3)][Hyp](Et)[Ac4c][NMeGly(cPent)]D-Morpholide; lactam N-11) | B (a compound having 3 or more and less than 10 is denoted as B) | B (a compound having 3 or more and less than 10 is denoted as B) | – | –
5 | 7.8 nM | CCC[C@H]1C(=O)N[C@@H]([C@@H](C)CC)C(=O)N2CCC[C@H]2C(=O)N(C)[C@H]2C/C=C\CCN(C2=O)[C@@H](Cc2ccc(C(F)(F)F)cc2)C(=O)N(C)CC(=O)N[C@@H](CCc2cc(F)c(C(F)(F)F)c(F)c2)C(=O)N2C[C@H](OCC)C[C@H]2C(=O)N(C)C2(CCC2)C(=O)N(C)[C@@H](C2CCCC2)C(=O)N(C)[C@H](C(=O)N2CCCC2)CC(=O)N1C [PP3116] | A (a compound having 10 or more and less than 20 is denoted as A) | A (a compound having 10 or more and less than 20 is denoted as A) | – | –
6 | 2.4 nM | CCO[C@@H]1C[C@H]2C(=O)NC3(CCCC3)C(=O)N(C)[C@@H](C3CCCC3)C(=O)N(C)[C@H](C(=O)N(C)C)CC(=O)N(C)[C@@H](CC(C)C)C(=O)N[C@@H]([C@@H](C)CC)C(=O)N(C)CC(=O)N(C)[C@H]3CCCCN(C3=O)[C@@H](Cc3ccc(C(F)(F)F)cc3)C(=O)N(C)CC(=O)N[C@@H](CCc3cc(F)c(C(F)(F)F)c(F)c3)C(=O)N2C1 [PP0579] | – | – | C (A compound having a KD ratio of 0.1 or more and less than 3 is denoted as C) | B (a compound having 3 or more and less than 10 is denoted as B)
7 | 1.9 nM | CCC[C@H]1C(=O)N[C@@H]([C@@H](C)CC)C(=O)N(C)CC(=O)N(C)[C@H]2C/C=C\CCN(C2=O)[C@@H](Cc2ccc(C(F)(F)F)cc2)C(=O)N(C)CC(=O)N[C@@H](CCc2cc(F)c(C(F)(F)F)c(F)c2)C(=O)N2C[C@H](OCC)C[C@H]2C(=O)N(C)C2(CCC2)C(=O)N(C)[C@@H](C2CCCC2)C(=O)N(C)[C@H](C(=O)N2CCCC2)CC(=O)N1C [PP3120] | AA (a compound having 20 or more is denoted as AA) | A (a compound having 10 or more and less than 20 is denoted as A) | – | –
